The values that follow come from patent US20200206196A1, “Antiviral Drugs” (priority 2017, published 2020).

Residues, ends and D or L forms follow the SMILES beside them.

Data set [1] deals with HeV. The class given is cell-based, Hendra virus.
Data set [2] has as its system NiV. The class given is cell-based, Nipah virus.
Data set [3] concerns RSV. It counts as cell-based, RSV (strain A2).
For data set [4], the system named is vesicular stomatitis virus (VSV). It counts as cell-based.
Data set [5] concerns influenza A virus (A/WSN/33). It counts as cell-based, Influenza A/WSN/33 (H1N1).
For data set [6], the system named is HeLa cells. The data set is described as follows: Alamar blue assay of metabolic activity. It counts as cell-based. As to conditions: HeLa cells treated for 26 h, vs vehicle or media. A general note: Alamar Blue is a resazurin reagent that responds to reducing activity.
Data set [7] deals with HeV-F and HeV-G mediated cell-cell fusion. It counts as cell-based, Hendra virus.
Data set [8] has as its system HeV. It counts as cell-based, Hendra virus. The source holds these as a separate data set.
Data set [9] has as its system HeV. It counts as cell-based, Hendra virus. This is another data set of the same source.
The test system of data set [10] is HeLa cells. The data set is described as follows: Cell viability: relative cell numbers (DAPI nuclei count). As to conditions: 26 h post-treatment, concentrations resulting in antiviral activity.
The subject of data set [11] is HeV. It counts as cell-based, Hendra virus. This is another data set of the same source.

Consider `CCOc1nc2cccc(C(=O)O)c2n1Cc1ccc(-c2ccccc2-c2nnn[nH]2)cc1` [Candesartan], for which, in data set [1], the “HeV infection (HeV titres), dose response” value was “inhibited HeV infection in a dose-dependent manner”.

On to `CCCc1nc2c(C)cc(-c3nc4ccccc4n3C)cc2n1Cc1ccc(-c2ccccc2C(=O)O)cc1` [Telmisartan], for which, in data set [1], the “HeV infection (HeV titres), dose response” value is given as “inhibited HeV infection in a dose-dependent manner”; the “reduction in HeV titers” value is on record as about 95%; the “reduction in virus titres, HeV” value was “significant reduction in virus titres”. Moreover, in [2], the “reduction in virus titres, NiV” value is recorded as “significant reduction in virus titres”. For the same compound, in data set [3], the “reduction in virus titres, RSV” value is given as “significant reduction in virus titres”. For the same compound, the “reduction in virus titres, VSV” value in data set [4] is recorded as “significant reduction in virus titres”. Also, the “reduction in virus titres, A/WSN/33” value in data set [5] is given as “not for A/WSN/33”. Besides, in data set [6], the “change in metabolic activity (Alamar blue)” value is on record as “no significant change in metabolic activity”. Moreover, the “cell-cell fusion of target cells with HeV-F/HeV-G effector cells” value in [7] is on record as “comparable to target cells treated with vehicle”. Besides, the “intracellular viral RNA levels” value in [8] is reported as “significantly reduced intracellular viral RNA levels”. Moreover, the “viral protein production (P protein and N protein)” value in [9] was “almost completely abolished”. In [10], the “impact on cell numbers” value is “mild impact on cell numbers”.

Regarding `CSCC[C@@H](C=O)NC(=O)[C@H](CC(C)C)NC(=O)[C@H](CC(C)C)NC(C)=O` [calpain inhibitor II] (Ac-Leu-Leu-Met-aldehyde), in data set [11], the “inhibition of viral protein synthesis (virus antigen levels per well)” value is given as “more effective than E64D” and the “inhibition of virus-induced cell death (cell numbers per well)” value was “more effective than E64D”.
